Test results from publication PMC6335354, “Chitosan Grafted With β-Cyclodextrin: Synthesis, Characterization, Antimicrobial Activity, and Role as Absorbefacient and Solubilizer” (Frontiers in Chemistry, 2019).
Converted amounts (≈) assume the structure as drawn. Where a name gives a salt, the structure may show the parent alone. Read-outs that look alike come from different tables or passages of the source.

Columns and labels:
[1] = Aqueous solubility of sulfonamides (UV-Vis); details: thermodynamic from solid
Description: Aqueous solubility measurements were conducted according to the method of Wang and Wang ([2000]). […] The mixture was agitated until reaching equilibrium with water in the equilibrium cell and then kept for 30 min. A known amount of the upper layer of the mixture was removed from the equilibrium cell and diluted with distilled water. The calibration curve established by ultraviolet–visible spectrophotometry (UV–Vis) was used to determine the concentration of the solution.

[2] = added 6 μg/mL (sulfamethoxazole 8 μg/mL)
Description: The stability test was performed by keeping the samples for 0h, 1h, 2h, 4h, 6h, 8h, 24h at room temperature before analysis. […] S2.

[3] = physchem; details: for solubility at 2 h: 25 °C, aqueous with cosolvent or surfactant or cyclodextrin, thermodynamic from solid, solubility with CD-g-CS
Description: Acetic acid [1 mL, 1 % (v/v)] was used to dissolve 10 mg of CD-g-CS, and the pH of the solution was adjusted to be similar to that of the distilled water. […] A vortex mixer was used to mix the suspension followed by sonication for 20 min. The mixture was then stirred for 2 h at 25°C followed by the centrifugation of the suspension at 8,000 r/min for 10 min. The supernatant was filtered using a membrane with 0.45-μm pore size.

[4] = test system: S. xylosus; test: Uptake of doxorubicin hydrochloride by flow cytometry (FCS); type: cell-based, Staphylococcus xylosus; details: 50 μmol/L doxorubicin hydrochloride, CD-g-CS 0.5, 2, 5 mg/mL, 1 h, 37°C
Description: The cultured S. xylosus in the logarithmic phase were mixed with CD-g-CS (5, 2, or 0.5 mg/mL) containing 50 μmol/L doxorubicin hydrochloride. The mixtures were incubated at 37°C for 1 h. Subsequently, the S. xylosus solutions were centrifuged, washed three times with PBS (pH = 7.2), and resuspended in 500 μL PBS. For each sample, S. xylosus was sorted using a Flow Cytometry System (FCS). S. xylosus treated with only doxorubicin hydrochloride served as a control.

[5] = test system: S. xylosus; test: Uptake of doxorubicin hydrochloride by CLSM; type: cell-based, Staphylococcus xylosus; details: 50 μmol/L doxorubicin hydrochloride, 2 mg/mL CD-g-CS, 30 min, 1 and 3 h
Description: Cultured S. xylosus in the logarithmic phase was mixed with 2 mg/mL CD-g-CS containing 50 μmol/L doxorubicin hydrochloride. The mixtures were incubated at 37°C for 30 min, 1 or 3 h. The mixtures of S. xylosus were then centrifuged, washed three times, and re-suspended in 500 μL PBS (pH = 7.2). Each sample with S. xylosus was placed on a glass slide and observed by confocal laser scanning microscopy (CLSM). S. xylosus treated with only doxorubicin hydrochloride for 30 min, 1 or 3 h served as the control.

COc1cc(NS(=O)(=O)c2ccc(N)cc2)ncn1 [sulfamonomethoxine]
solubility ([1]; distilled water): 69 ± 1.59 µg/mL (≈ 246 µM) | Measured concentration ([2]; 0h at room temperature): 6.09 ± 0.060 µg/mL | Measured concentration ([2]; 1h at room temperature): 6.09 ± 0.026 µg/mL | Measured concentration ([2]; 2h at room temperature): 5.93 ± 0.021 µg/mL | Measured concentration ([2]; 4h at room temperature): 6.12 ± 0.018 µg/mL | Measured concentration ([2]; 6h at room temperature): 5.88 ± 0.018 µg/mL | Measured concentration ([2]; 8h at room temperature): 6.12 ± 0.046 µg/mL | Measured concentration ([2]; 24h at room temperature): 6.13 ± 0.015 µg/mL | solubility at 2 h [3]: 283 ± 13 µg/mL (≈ 1010 µM)

COc1cccc2c1C(=O)c1c(O)c3c(c(O)c1C2=O)C[C@@](O)(C(=O)CO)C[C@@H]3O[C@H]1C[C@H](N)[C@H](O)[C@H](C)O1 [doxorubicin hydrochloride]
uptake of doxorubicin hydrochloride (fluorescence intensity, FCS) [4]: very low | uptake of doxorubicin hydrochloride (fluorescence intensity, CLSM) [5]: very weak

Nc1ccc(S(=O)(=O)Nc2ncccn2)cc1 [sulfadiazine]
solubility ([1]; water): 26 ± 1.68 µg/mL (≈ 104 µM) | Measured concentration ([2]; 0h at room temperature): 5.98 ± 0.078 µg/mL | Measured concentration ([2]; 1h at room temperature): 6.04 ± 0.058 µg/mL | Measured concentration ([2]; 2h at room temperature): 6.13 ± 0.013 µg/mL | Measured concentration ([2]; 4h at room temperature): 5.89 ± 0.047 µg/mL | Measured concentration ([2]; 6h at room temperature): 5.95 ± 0.055 µg/mL | Measured concentration ([2]; 8h at room temperature): 6.14 ± 0.043 µg/mL | Measured concentration ([2]; 24h at room temperature): 6.02 ± 0.054 µg/mL | solubility at 2 h ([3]; 10 mg/mL CD-g-CS solution, with 10 mg/mL CD-g-CS (QCD = 0.6 × 10^2 μmol/g)): 147 ± 7.05 µg/mL (≈ 587 µM) | solubility at 2 h ([3]; 10 mg/mL CD-g-CS solution, with 10 mg/mL CD-g-CS (QCD = 0.643 × 10^3 μmol/g)): 236 ± 4.25 µg/mL (≈ 943 µM) | solubility enhancement compared to the aqueous solution ([3]; with 10 mg/mL CD-g-CS (QCD = 0.6 × 10^2 μmol/g)): approximately 5.6 times | solubility enhancement compared to the aqueous solution ([3]; with 10 mg/mL CD-g-CS (QCD = 0.643 × 10^3 μmol/g)): 9.1 times
